# Like-named read-outs stand apart in the source and are kept apart here.
# Key:
# [1] = tested on: Plasmodium falciparum 3D7-A10 parasites; assay: Stage specificity assay (8-h exposure of synchronized stages, IC50^8h); assay type: cell-based; settings: for Ratio lowest IC50 8hr/IC50 72hr: 3D7-A10; for IC50: Plasmodium falciparum
# [2] = tested on: asynchronous 3D7-A10 parasite cultures; assay: Standard 72-h exposure asexual blood stage susceptibility assay (IC50^72h); assay type: cell-based, Plasmodium falciparum; settings: Plasmodium falciparum, 3D7, 72 h, read-out: Overall (72hr assay) Mean IC50 (IC50^72h)
# [3] = tested on: 3D7-MR4 trophozoite parasite-infected RBCs; assay: Metabolomic profiling (hydrophilic metabolite changes, UHPLC-MS); assay type: cell-based, Plasmodium falciparum
# [4] = 3D7, read-out: Early rings IC50 (IC50^8h), 8-h exposure 0–8 hr, bound given in μM
# [5] = 3D7, read-out: Early trophozoites Mean IC50 (IC50^8h), 8-h exposure 16–24 hr, 3D7-A10, survival at 60 h
# [6] = 3D7, read-out: Late rings IC50 (IC50^8h), 8-h exposure 8–16 hr, bound given in μM
# [7] = 3D7, read-out: Late trophozoites Mean IC50 (IC50^8h), 8-h exposure 24–32 hr, 3D7-A10, survival at 60 h
# [8] = 3D7, read-out: Schizonts Mean IC50 (IC50^8h), 8-h exposure 32–40 hr, 3D7-A10, survival at 60 h
smiles,measurement,setting,value
"O=CN(O)CCCP(=O)(O)O [Fosmidomycin, reference compound]",Ratio lowest IC50 8hr/IC50 72hr,[1],4.9
same,IC50,"[1]; 3D7, 8 h, read-out: IC50^8h values at all tested stages, 8-h exposures, all asexual blood stages",> 1 µM
same,IC50,[1]; [4],> 10 µM
same,IC50,[1]; [5],1.98 µM
same,IC50,[1]; [6],> 10 µM
same,IC50,[1]; [7],1.99 µM
same,IC50,"[1]; 3D7, read-out: Schizonts IC50 (IC50^8h), 8-h exposure 32–40 hr, bound given in μM",> 10 µM
same,Peak Activity (Table S1),[1]; stage(s) with the lowest IC50^8h,Trophs
same,IC50,[2],405 nM
"CCOC(=O)C1=C(C)NC2=C(C(=O)CC(c3ccc(OC)c(OC)c3)C2)C1c1ccccc1Cl (stereo not drawn) [GNF-Pf-5660, reference compound]",Ratio lowest IC50 8hr/IC50 72hr,[1],18.0
same,IC50,"[1]; 3D7, read-out: Early rings Mean IC50 (IC50^8h), 8-h exposure 0–8 hr, 3D7-A10, survival at 60 h",0.119 µM
same,IC50,[1]; [5],0.108 µM
same,IC50,"[1]; 3D7, read-out: Late rings Mean IC50 (IC50^8h), 8-h exposure 8–16 hr, 3D7-A10, survival at 60 h",0.238 µM
same,IC50,[1]; [7],0.0793 µM
same,IC50,[1]; [8],0.29 µM
same,Stage of peak activity (Figure 6),[1]; period when the parasite was most susceptible (lowest IC50^8h),rings and trophozoites
same,peptide levels (hemoglobin catabolism signature),"[3]; 10 × IC50^72h, 2.5 hr, trophozoites",decreased peptide levels
same,Log2(fold changes) 3-phosphoglycerate,"[3]; metabolite 3-phosphoglycerate, log2 fold change",0.0553
same,Log2(fold changes) 4-Pyridoxic acid,"[3]; metabolite 4-Pyridoxic acid, log2 fold change",0.0311
same,Log2(fold changes) 4-aminobutyrate,"[3]; metabolite 4-aminobutyrate, log2 fold change",-0.1913
same,Log2(fold changes) 4-phosphopantetheine,"[3]; metabolite 4-phosphopantetheine, log2 fold change",-0.0588
same,Log2(fold changes) 4-phosphopantothenate,"[3]; metabolite 4-phosphopantothenate, log2 fold change",-0.0656
same,Log2(fold changes) 5-aminopentanoic acid,"[3]; metabolite 5-aminopentanoic acid, log2 fold change",0.0000
same,Log2(fold changes) 5-methyl-THF,"[3]; metabolite 5-methyl-THF, log2 fold change",0.0000
same,Log2(fold changes) 5-phosphoribosyl-1-pyrophosphate,"[3]; metabolite 5-phosphoribosyl-1-pyrophosphate, log2 fold change",0.0000
same,Log2(fold changes) 6-phospho-D-gluconate,"[3]; metabolite 6-phospho-D-gluconate, log2 fold change",-0.0448
same,Log2(fold change) HVDD,[3]; metabolite HVDD,-2.3471
same,Log2(fold change) Hydroxyisocaproic acid,[3]; metabolite Hydroxyisocaproic acid,0.0000
same,Log2(fold change) IDP,[3]; metabolite IDP,0.0000
same,Log2(fold change) IMP,[3]; metabolite IMP,-0.0436
same,Log2(fold change) Inositol,[3]; metabolite Inositol,0.0000
same,Log2(fold change) Isopentyl-PP,[3]; metabolite Isopentyl-PP,0.0000
same,Log2(fold change) L-arginino-succinate,[3]; metabolite L-arginino-succinate,-1.4037
same,Log2(fold change) LD,[3]; metabolite LD,0.0323
same,Log2(fold change) Myristoyl/tetradecanoyl-CoA,[3]; metabolite Myristoyl/tetradecanoyl-CoA,0.0000
same,Log2(fold change) N-Acetyl-L-alanine,[3]; metabolite N-Acetyl-L-alanine,-0.5679
same,Log2(fold change) N-acetyl-L-ornithine,[3]; metabolite N-acetyl-L-ornithine,-1.3851
same,Log2(fold change) N-acetyl-glucosamine-1/6-phosphate,[3]; metabolite N-acetyl-glucosamine-1/6-phosphate,0.1805
same,Log2(fold change) N-acetyl-glutamate,[3]; metabolite N-acetyl-glutamate,0.1150
same,Log2(fold change) N-acetyl-glutamine,[3]; metabolite N-acetyl-glutamine,-0.5582
same,Log2(fold change) N-carbamoyl-L-aspartate,[3]; metabolite N-carbamoyl-L-aspartate,-0.1586
same,Log2(fold change) NAD+,[3]; metabolite NAD+,-0.1007
same,Log2(fold change) NADH,[3]; metabolite NADH,0.4611
same,Log2(fold change) NADP+,[3]; metabolite NADP+,0.0287
same,Log2(fold change) NADPH,[3]; metabolite NADPH,0.0479
same,Log2(fold change) O-acetyl-L-serine,[3]; metabolite O-acetyl-L-serine,0.0000
same,Log2(fold change) Octoluse 8/1P,[3]; metabolite Octoluse 8/1P,-0.0806
same,Log2(fold change) Octoluse Bisphosphate,[3]; metabolite Octoluse Bisphosphate,-0.3183
same,Log2(fold change) PD,[3]; metabolite PD,-1.8683
same,Log2(fold change) PE,[3]; metabolite PE,-1.8289
same,Log2(fold change) PEE,[3]; metabolite PEE,-1.8489
same,Log2(fold change) PEEK,[3]; metabolite PEEK,-2.1431
same,Log2(fold change) PVNF,[3]; metabolite PVNF,-2.1997
same,Log2(fold change) Pyroglutamic acid,[3]; metabolite Pyroglutamic acid,-0.1216
same,Log2(fold change) Pyrophosphate,[3]; metabolite Pyrophosphate,0.0000
same,Log2(fold change) Ribose-5-phosphate,[3]; metabolite Ribose-5-phosphate,0.0000
same,Log2(fold change) S-adenosyl-L-homocysteine,[3]; metabolite S-adenosyl-L-homocysteine,-0.0693
same,Log2(fold change) S-adenosyl-L-methioninamine,[3]; metabolite S-adenosyl-L-methioninamine,0.0000
same,Log2(fold change) S-adenosyl-L-methionine,[3]; metabolite S-adenosyl-L-methionine,0.0000
same,Log2(fold change) S-methyl-5'-thioadenosine,[3]; metabolite S-methyl-5'-thioadenosine,-0.0720
same,Log2(fold change) SD,[3]; metabolite SD,-1.1525
same,Log2(fold change) SDL,[3]; metabolite SDL,-1.7902
same,Log2(fold change) SID,[3]; metabolite SID,0.0000
same,Log2(fold change) Sedoheptulose bisphosphate,[3]; metabolite Sedoheptulose bisphosphate,-0.1508
same,Log2(fold change) Thiamine pyrophosphate,[3]; metabolite Thiamine pyrophosphate,0.0000
same,Log2(fold changes) UDP-D-glucose,"[3]; metabolite UDP-D-glucose, log2 fold change",0.0139
same,Log2(fold changes) UDP-D-glucuronate,"[3]; metabolite UDP-D-glucuronate, log2 fold change",0.0860
same,Log2(fold changes) UDP-N-acetyl-glucosamine,"[3]; metabolite UDP-N-acetyl-glucosamine, log2 fold change",-0.0276
same,Log2(fold changes) UDP,"[3]; metabolite UDP, log2 fold change",0.1561
same,Log2(fold changes) UMP,"[3]; metabolite UMP, log2 fold change",-0.3498
same,Log2(fold changes) UTP,"[3]; metabolite UTP, log2 fold change",0.0000
same,Log2(fold change) hydroxyphenylpyruvate,[3]; metabolite hydroxyphenylpyruvate,0.0000
same,Log2(fold change) hydroxyproline/Aminolevulinate,[3]; metabolite hydroxyproline/Aminolevulinate,0.0000
same,Log2(fold change) hypoxanthine,[3]; metabolite hypoxanthine,0.0715
same,Log2(fold change) indole,[3]; metabolite indole,-0.1422
same,Log2(fold change) inosine,[3]; metabolite inosine,-0.1669
same,Log2(fold change) isoleucine,[3]; metabolite isoleucine,0.0000
same,Log2(fold change) lactate,[3]; metabolite lactate,-0.0958
same,Log2(fold change) leucine,[3]; metabolite leucine,0.0000
same,Log2(fold change) lysine,[3]; metabolite lysine,0.0000
same,Log2(fold change) malate,[3]; metabolite malate,-0.8784
same,Log2(fold change) maleic acid,[3]; metabolite maleic acid,-0.8581
same,Log2(fold change) methionine,[3]; metabolite methionine,-0.1925
same,Log2(fold change) myo-inositol,[3]; metabolite myo-inositol,0.0386
same,Log2(fold change) nicotinamide mononucleotide,[3]; metabolite nicotinamide mononucleotide,-0.1106
same,Log2(fold change) nicotinate,[3]; metabolite nicotinate,0.1148
same,Log2(fold change) ornithine,[3]; metabolite ornithine,-0.1689
same,Log2(fold change) orotate,[3]; metabolite orotate,-0.3275
same,Log2(fold change) orotidine-5'-phosphate,[3]; metabolite orotidine-5'-phosphate,-1.3140
same,Log2(fold change) oxaloacetate,[3]; metabolite oxaloacetate,-0.1481
same,Log2(fold change) p-aminobenzoate,[3]; metabolite p-aminobenzoate,-0.1878
same,Log2(fold change) p-hydroxybenzoate,[3]; metabolite p-hydroxybenzoate,0.0000
same,Log2(fold change) pantothenate,[3]; metabolite pantothenate,-0.2858
same,Log2(fold change) phenylalanine,[3]; metabolite phenylalanine,-0.3503
same,Log2(fold change) phenylpyruvate,[3]; metabolite phenylpyruvate,0.0000
same,Log2(fold change) phosphoenolpyruvate,[3]; metabolite phosphoenolpyruvate,0.2491
same,Log2(fold change) prephenate,[3]; metabolite prephenate,-0.5893
same,Log2(fold change) proline,[3]; metabolite proline,0.0000
same,Log2(fold change) pyridoxine,[3]; metabolite pyridoxine,-0.1054
same,Log2(fold change) pyruvate,[3]; metabolite pyruvate,-0.3244
same,Log2(fold change) riboflavin,[3]; metabolite riboflavin,-0.0162
same,Log2(fold change) ribose,[3]; metabolite ribose,0.0000
same,Log2(fold change) ribose-phosphate,[3]; metabolite ribose-phosphate,-0.2537
same,Log2(fold change) ribulose-5-phosphate,[3]; metabolite ribulose-5-phosphate,0.0000
same,Log2(fold change) serine,[3]; metabolite serine,0.0000
same,Log2(fold change) sn-glycerol-3-phosphate,[3]; metabolite sn-glycerol-3-phosphate,0.1845
same,Log2(fold change) succinate/Methylmalonic acid,[3]; metabolite succinate/Methylmalonic acid,-0.0086
same,Log2(fold change) succinyl-CoA/methylmalonyl-CoA,[3]; metabolite succinyl-CoA/methylmalonyl-CoA,0.0000
same,Log2(fold change) taurine,[3]; metabolite taurine,0.0000
same,Log2(fold change) thiamine,[3]; metabolite thiamine,-0.1840
same,Log2(fold change) threonine/homoserine,[3]; metabolite threonine/homoserine,0.0000
same,Log2(fold change) thymidine,[3]; metabolite thymidine,0.0000
same,Log2(fold changes) thymine,"[3]; metabolite thymine, log2 fold change",0.0000
same,Log2(fold changes) trehalose-6-Phosphate,"[3]; metabolite trehalose-6-Phosphate, log2 fold change",0.0000
same,Log2(fold changes) tryptophan,"[3]; metabolite tryptophan, log2 fold change",-0.0821
same,Log2(fold changes) tyrosine,"[3]; metabolite tyrosine, log2 fold change",-0.1854
same,Log2(fold changes) uridine,"[3]; metabolite uridine, log2 fold change",-0.2184
same,IC50,[2],4.4 nM
CCOC(=O)C1=C(C)N=c2s/c(=C\c3cc(Cl)ccc3O)c(=O)n2C1c1ccc(OC)cc1 (stereo not drawn) [MMV665971],Ratio lowest IC50 8hr/IC50 72hr,[1],2.6
same,killing in stage specificity assay,"[1]; 8-h exposures, survival curves",incomplete killing at all asexual blood stages
same,IC50,[1]; [4],> 25 µM
same,IC50,[1]; [5],0.496 µM
same,IC50,[1]; [6],> 25 µM
same,IC50,[1]; [7],0.485 µM
same,IC50,[1]; [8],0.523 µM
same,IC50,[2],185 nM
